The text below walks through data of patent US20210137854A1, “TAAR Receptor Agonists for the Treatment of Alopecia” (APPLIED BIOLOGY, INC., priority 2018, published 2021).

Common to all, as to assay type: in vivo, human
Data set [1] has as its system scalp hair follicles. As to the kind of experiment: Hair shedding during brushing after topical solution versus placebo.
From the text: Participants included in the study were female subjects between ages of 18 and 60 who frequently use traumatic hair care practices, such as tight braids, head scarves, ponytails, extensions, hair rollers, hair weaves and heated styling appliances such as blow dryers, flat irons, heat setters and curling irons. Excluded subjects were those who experienced uncontrolled hypertension, those who were pregnant or breastfeeding, those who were diagnosed with pattern hair loss, or those who experienced other hair loss in conjunction with female pattern hair loss. Overall, fifteen female subjects, aged 24 to 40 years, participated in the study.
On day 1, subjects were instructed to wash their hair. On day 2, subjects were instructed to apply 1 mL of placebo solution containing vehicle and brush targeted area after 30 minutes. Brushing was conducted to frontal hair with regular brush in size of 8×10 cm^2. On day 3, subjects were instructed again to wash their hair. On day 4, subjects were instructed to apply 1 mL of 10% m-octopamine hydrochloride solution on targeted area and brush after 30 minutes.
The study was conducted over 4 days. On day 1, subjects were instructed to wash their hair. […]
Hair Shedding: To measure hair loss during cosmetic procedures, a 4-day protocol was designed. […] After each clinical procedure, the investigator counted the hairs collected on each brush. […]
The test system of data set [2] is scalp hair follicles. The experiment in a line: Epilation force threshold for plucking scalp hair (trichotillometer). As to the method:
To evaluate the effect of a topically applied TAAR agonist combination on the force required to pluck hairs from the scalp, a hand-held spring dynamometer, or “trichotillometer” was used. The trichotillometer records the maximum force threshold, in grams, required to pluck a single hair from the scalp; the performance and statistical variance of the instrument have been reported previously. […] The frontal area of scalp was divided into two 8×10 cm^2 areas. On the right side 0.5 mL of a placebo vehicle was applied. On the left side, 0.5 mL a 12% tyramine solution was applied. After 45 minutes, ten hairs were plucked from each of the target areas with the trichotillometer.

Data set [3] can be described thus: Cardiac or hemodynamic changes during topical α1-AR agonist studies. The following applies: subjects sampled during both studies. The text has this: It is recognized that […] of the α1 adrenergic receptor (α1-AR), a G-protein coupled receptor, expressed on the arrector pili muscle.

Molecules are shown by their SMILES.

For `CNC[C@H](O)c1cccc(O)c1` [phenylephrine], in the data set with scalp hair follicles [1] (Examples 7 and 9, blinded study, female subjects ages 18-40), the “subjects with reduced shedding compared to days using placebo solution” value amounted to 80%. Moreover, the “reduction in hairs lost (shedding) during brushing” value in the data set on scalp hair follicles [1] (earlier studies of the inventors, phenylephrine 15 female subjects, AB-102 cohort of 40 women) is on record as 40%. Further, in the data set with scalp hair follicles [2] (following topical application, Examples 5 and 6, FIGS. 4-5), the “increase in epilatory force threshold for plucking hair follicles” value turned out to be 172%. Further, in the data set with scalp hair follicles [2] (pilot study of 15 female subjects), the “increase in average threshold of force required to pluck hair” value came out at 172%. In data set [3], the “cardiac or hemodynamic changes” value is “no cardiac or hemodynamic changes were observed”.
